Assay results published in publication PMC5218480 (PLoS ONE, 2017).

System: MV-4-11 cells
Experiment: Gene expression microarray analysis (Affymetrix PrimeView) and GSEA
Assay type: cell-based, human
Design: RFU PODN (11730768_x_at) / Fold change /veh PODN (11730768_x_at) / RFU LINC00158 (11744669_a_at) / Fold change /veh LINC00158 (11744669_a_at) / RFU DUSP10 (11751237_a_at) / Fold change /veh DUSP10 (11751237_a_at) / RFU ID3 (11757404_x_at) / Fold change /veh ID3 (11757404_x_at) / RFU PLEKHG5 (11737974_s_at) / Fold change /veh PLEKHG5 (11737974_s_at) / RFU LRRC4B (11730491_at) / Fold change /veh LRRC4B (11730491_at) / RFU GIMAP4 (11747438_a_at) / Fold change /veh GIMAP4 (11747438_a_at) / RFU KRT8 (11758183_x_at) / Fold change /veh KRT8 (11758183_x_at) / RFU CNN1 (11734310_a_at) / Fold change /veh CNN1 (11734310_a_at) / RFU VPS37D (11726825_at) / Fold change /veh VPS37D (11726825_at) / RFU C10orf10 (11716522_x_at) / Fold change /veh C10orf10 (11716522_x_at) / RFU KIR2DL2 /// KIR2DL4 /// KIR2DL5A /// KIR2DL5B /// KIR2DS1 /// KIR2DS2 /// KIR2DS3 /// KIR2DS4 /// KIR3DL3 /// KIR3DL3 /// KIR3DS1 (11738374_at) / Fold change /veh KIR2DL2 /// KIR2DL4 /// KIR2DL5A /// KIR2DL5B /// KIR2DS1 /// KIR2DS2 /// KIR2DS3 /// KIR2DS4 /// KIR3DL3 /// KIR3DL3 /// KIR3DS1 (11738374_at) / RFU C1QL1 (11718748_at) / Fold change /veh C1QL1 (11718748_at) / RFU TMPRSS4 (11747572_a_at) / Fold change /veh TMPRSS4 (11747572_a_at) / RFU HAMP (11756126_x_at) / Fold change /veh HAMP (11756126_x_at) / RFU RNFT2 (11725882_a_at) / Fold change /veh RNFT2 (11725882_a_at) / RFU NR4A2 (11747474_a_at) / Fold change /veh NR4A2 (11747474_a_at) / RFU ABCC12 (11746883_a_at) / Fold change /veh ABCC12 (11746883_a_at) / RFU TMEM136 (11760407_x_at) / Fold change /veh TMEM136 (11760407_x_at) / RFU CLDN22 /// WWC2 (11732394_at) / Fold change /veh CLDN22 /// WWC2 (11732394_at) / RFU HLA-DPB1 (11760878_x_at) / Fold change /veh HLA-DPB1 (11760878_x_at) / RFU SPINT1 (11716480_a_at) / Fold change /veh SPINT1 (11716480_a_at) / RFU GAP43 (11754022_s_at) / Fold change /veh GAP43 (11754022_s_at) / RFU A4GNT (11735810_at) / Fold change /veh A4GNT (11735810_at) / RFU PRB3 (11715151_x_at) / Fold change /veh PRB3 (11715151_x_at) / RFU TUBB4B (11761932_at) / Fold change /veh TUBB4B (11761932_at) / RFU CAPN14 (11732068_a_at) / Fold change /veh CAPN14 (11732068_a_at) / RFU TMCC2 (11721928_a_at) / Fold change /veh TMCC2 (11721928_a_at) / RFU IRGQ (11745062_a_at) / Fold change /veh IRGQ (11745062_a_at) / RFU FAM174B (11720279_a_at) / Fold change /veh FAM174B (11720279_a_at) / RFU TMPRSS4 (11748680_a_at) / Fold change /veh TMPRSS4 (11748680_a_at) / RFU FAM212B (11763350_a_at) / Fold change /veh FAM212B (11763350_a_at) / RFU PLEKHG5 (11743358_a_at) / Fold change /veh PLEKHG5 (11743358_a_at) / RFU ZSCAN30 (11745921_a_at) / Fold change /veh ZSCAN30 (11745921_a_at) / RFU CMKLR1 (11741424_a_at) / Fold change /veh CMKLR1 (11741424_a_at) / RFU LOC101060620 /// MAPK8IP1 (11723275_at) / Fold change /veh LOC101060620 /// MAPK8IP1 (11723275_at) / RFU SPTSSB (11747773_x_at) / Fold change /veh SPTSSB (11747773_x_at) / RFU PRSS12 (11739890_at) / Fold change /veh PRSS12 (11739890_at) / RFU BIN1 (11741810_x_at) / Fold change /veh BIN1 (11741810_x_at) / RFU WNT11 (11732464_a_at) / Fold change /veh WNT11 (11732464_a_at) / RFU C10orf10 (11716521_a_at) / Fold change /veh C10orf10 (11716521_a_at) / RFU C5orf56 (11738089_at) / Fold change /veh C5orf56 (11738089_at) / RFU CYB561 (11721691_x_at) / Fold change /veh CYB561 (11721691_x_at) / RFU ANKRD19P (11752326_a_at) / Fold change /veh ANKRD19P (11752326_a_at) / RFU OR2T12 /// OR2T33 /// OR2T8 (11738714_s_at) / Fold change /veh OR2T12 /// OR2T33 /// OR2T8 (11738714_s_at) / RFU VCAN (11748164_a_at) / Fold change /veh VCAN (11748164_a_at) / RFU JSRP1 (11732532_at) / Fold change /veh JSRP1 (11732532_at) / RFU KRTAP10-11 (11738290_x_at) / Fold change /veh KRTAP10-11 (11738290_x_at) / RFU MYO3A (11730013_a_at) / Fold change /veh MYO3A (11730013_a_at) / RFU EBF3 (11725865_a_at) / Fold change /veh EBF3 (11725865_a_at) / RFU CAMK2N1 (11719241_x_at) / Fold change /veh CAMK2N1 (11719241_x_at) / RFU C5orf56 (11738088_a_at) / Fold change /veh C5orf56 (11738088_a_at) / RFU OLFML3 (11715873_a_at) / Fold change /veh OLFML3 (11715873_a_at) / RFU LOC100653217 /// NTM (11731650_a_at) / Fold change /veh LOC100653217 /// NTM (11731650_a_at) / RFU MAPK11 (11762145_a_at) / Fold change /veh MAPK11 (11762145_a_at) / RFU FIZ1 (11724087_x_at) / Fold change /veh FIZ1 (11724087_x_at) / RFU OASL (11726364_x_at) / Fold change /veh OASL (11726364_x_at) / RFU SOX15 (11748057_x_at) / Fold change /veh SOX15 (11748057_x_at) / RFU CD79A (11719716_a_at) / Fold change /veh CD79A (11719716_a_at) / RFU HIST1H1D (11736915_at) / Fold change /veh HIST1H1D (11736915_at) / RFU CASKIN2 (11723855_a_at) / Fold change /veh CASKIN2 (11723855_a_at) / RFU LOC730098 (11760151_x_at) / Fold change /veh LOC730098 (11760151_x_at) / RFU OR4N2 (11742367_at) / Fold change /veh OR4N2 (11742367_at) / RFU PRRT2 (11749266_a_at) / Fold change /veh PRRT2 (11749266_a_at) / RFU SNX32 (11753110_a_at) / Fold change /veh SNX32 (11753110_a_at) / RFU CDHR5 (11726645_a_at) / Fold change /veh CDHR5 (11726645_a_at) / RFU RCAN1 (11760418_a_at) / Fold change /veh RCAN1 (11760418_a_at) / RFU FAM167A (11723789_a_at) / Fold change /veh FAM167A (11723789_a_at) / RFU FAM26E (11764081_at) / Fold change /veh FAM26E (11764081_at) / RFU ISYNA1 (11749810_s_at) / Fold change /veh ISYNA1 (11749810_s_at) / RFU ACY1 (11761880_at) / Fold change /veh ACY1 (11761880_at) / RFU 11764098_at / Fold change /veh 11764098_at / RFU SAMD14 (11745864_x_at) / Fold change /veh SAMD14 (11745864_x_at) / RFU NPB (11741838_a_at) / Fold change /veh NPB (11741838_a_at) / RFU TMPRSS6 (11731388_a_at) / Fold change /veh TMPRSS6 (11731388_a_at) / RFU KRTAP10-2 (11738614_at) / Fold change /veh KRTAP10-2 (11738614_at) / RFU ARHGAP8 /// PRR5-ARHGAP8 (11727945_x_at) / Fold change /veh ARHGAP8 /// PRR5-ARHGAP8 (11727945_x_at) / RFU KRTAP5-7 /// NADSYN1 (11734609_at) / Fold change /veh KRTAP5-7 /// NADSYN1 (11734609_at) / RFU RASL12 (11751679_a_at) / Fold change /veh RASL12 (11751679_a_at) / RFU CDKN2B (11736163_a_at) / Fold change /veh CDKN2B (11736163_a_at) / RFU PRF1 (11729649_at) / Fold change /veh PRF1 (11729649_at) / RFU, ZNF638 /// ZNF638-IT1 / Fold change vs veh, ZNF638 /// ZNF638-IT1 / RFU, PANK3 / Fold change vs veh, PANK3 / RFU, SH3YL1 / Fold change vs veh, SH3YL1 / RFU, ZEB2 / Fold change vs veh, ZEB2 / RFU, NRIP1 / Fold change vs veh, NRIP1 / RFU, PTTG1IP / Fold change vs veh, PTTG1IP / RFU, CAPN2 / Fold change vs veh, CAPN2 / RFU, MED14 / Fold change vs veh, MED14 / RFU, SNORA58 / Fold change vs veh, SNORA58 / RFU, C1orf63 / Fold change vs veh, C1orf63 / RFU, LRRFIP1 / Fold change vs veh, LRRFIP1 / RFU, NDUFAF7 / Fold change vs veh, NDUFAF7 / RFU, SLC12A2 / Fold change vs veh, SLC12A2 / RFU, IBTK / Fold change vs veh, IBTK / RFU, ESF1 / Fold change vs veh, ESF1 / Fold change vs veh, TMEM50B / RFU, TAOK1 / Fold change vs veh, TAOK1 / RFU, ACBD3 / Fold change vs veh, ACBD3 / RFU, TMA16 / Fold change vs veh, TMA16 / RFU, RWDD3 / Fold change vs veh, RWDD3 / RFU, BCAT1 / Fold change vs veh, BCAT1 / RFU, EDEM3 / Fold change vs veh, EDEM3 / RFU, TMEM33 / Fold change vs veh, TMEM33 / RFU, WDR75 / Fold change vs veh, WDR75 / RFU, AHCTF1 / Fold change vs veh, AHCTF1 / RFU, TFRC / Fold change vs veh, TFRC / RFU, ZDHHC17 / Fold change vs veh, ZDHHC17 / RFU, NOM1 / Fold change vs veh, NOM1 / RFU, ARL8B / Fold change vs veh, ARL8B / RFU, ZBTB11 / Fold change vs veh, ZBTB11 / RFU, TAMM41 / Fold change vs veh, TAMM41 / RFU, KIAA1704 /// LOC100996395 / Fold change vs veh, KIAA1704 /// LOC100996395 / RFU, ING1 / Fold change vs veh, ING1 / RFU, TRMT61B / Fold change vs veh, TRMT61B / RFU, FUBP3 / Fold change vs veh, FUBP3 / RFU, TP53 / Fold change vs veh, TP53 / RFU, TNKS2 / Fold change vs veh, TNKS2 / RFU, ZFP14 / Fold change vs veh, ZFP14 / RFU, ACTR2 / Fold change vs veh, ACTR2 / RFU, PPP3R1 / Fold change vs veh, PPP3R1 / RFU, PIK3R1 / Fold change vs veh, PIK3R1 / RFU, HNRNPA1 / Fold change vs veh, HNRNPA1 / RFU, RNF170 / Fold change vs veh, RNF170 / RFU, ZNF28 / Fold change vs veh, ZNF28 / RFU, RNGTT / Fold change vs veh, RNGTT / RFU, OGT / Fold change vs veh, OGT / RFU, BRD1 / Fold change vs veh, BRD1 / RFU, MARS / Fold change vs veh, MARS / RFU, ZNF655 / Fold change vs veh, ZNF655 / RFU, FAHD1 / Fold change vs veh, FAHD1 / RFU, BDP1 / Fold change vs veh, BDP1 / RFU, LRRCC1 / Fold change vs veh, LRRCC1 / RFU, ARID1A / Fold change vs veh, ARID1A / RFU, ZNF146 / Fold change vs veh, ZNF146 / RFU, ZNF330 / Fold change vs veh, ZNF330 / RFU, GPN3 / Fold change vs veh, GPN3 / RFU, C9orf123 / Fold change vs veh, C9orf123 / RFU, N4BP2L2 / Fold change vs veh, N4BP2L2 / RFU, ARFIP1 / Fold change vs veh, ARFIP1 / RFU, FAM179B / Fold change vs veh, FAM179B / RFU, BCL10 / Fold change vs veh, BCL10 / RFU, UHRF1BP1L / Fold change vs veh, UHRF1BP1L / RFU, BET1 / Fold change vs veh, BET1 / RFU, CNOT2 / Fold change vs veh, CNOT2 / RFU, ZNF268 / Fold change vs veh, ZNF268 / Fold change vs veh, ZNF507 / RFU, DGCR2 / Fold change vs veh, DGCR2 / RFU, WDSUB1 / Fold change vs veh, WDSUB1 / Fold change vs veh, HSP90B1 /// MIR3652 / RFU, ADSS / Fold change vs veh, ADSS / RFU, GK / Fold change vs veh, GK / RFU, ZNF148 / Fold change vs veh, ZNF148 / RFU, TAF9 / Fold change vs veh, TAF9 / RFU, SLC1A5 / Fold change vs veh, SLC1A5 / RFU, SLMO2 / Fold change vs veh, SLMO2 / RFU, ABCC4 / Fold change vs veh, ABCC4 / RFU, LOC101060439 /// RAP1B / Fold change vs veh, LOC101060439 /// RAP1B / RFU, RFX7 / Fold change vs veh, RFX7 / RFU, GTPBP10 / Fold change vs veh, GTPBP10 / RFU, CNEP1R1 / Fold change vs veh, CNEP1R1 / RFU, BIVM-ERCC5 /// ERCC5 / Fold change vs veh, BIVM-ERCC5 /// ERCC5 / RFU, ILF3 / Fold change vs veh, ILF3 / RFU 11762660_at / Fold change /veh 11762660_at / RFU VCAN (11757783_s_at) / Fold change /veh VCAN (11757783_s_at) / RFU DDX43 (11728927_at) / Fold change /veh DDX43 (11728927_at) / RFU KRT8 (11758188_x_at) / Fold change /veh KRT8 (11758188_x_at) / RFU NKD1 (11759106_at) / Fold change /veh NKD1 (11759106_at) / RFU SRD5A1 (11742802_a_at) / Fold change /veh SRD5A1 (11742802_a_at) / RFU TPSAB1 /// TPSB2 (11721975_s_at) / Fold change /veh TPSAB1 /// TPSB2 (11721975_s_at) / RFU GSTM3 (11746129_a_at) / Fold change /veh GSTM3 (11746129_a_at) / RFU IL23R (11737362_x_at) / Fold change /veh IL23R (11737362_x_at) / RFU TMEM51 (11727254_a_at) / Fold change /veh TMEM51 (11727254_a_at) / RFU PIWIL2 (11732686_x_at) / Fold change /veh PIWIL2 (11732686_x_at) / RFU ORM1 (11744905_x_at) / Fold change /veh ORM1 (11744905_x_at) / RFU CCDC152 (11743942_at) / Fold change /veh CCDC152 (11743942_at) / RFU ECM1 (11717891_a_at) / Fold change /veh ECM1 (11717891_a_at) / RFU IL23R (11748794_a_at) / Fold change /veh IL23R (11748794_a_at) / RFU TNFAIP8L3 (11732012_x_at) / Fold change /veh TNFAIP8L3 (11732012_x_at) / RFU MBOAT4 (11741988_at) / Fold change /veh MBOAT4 (11741988_at) / RFU 11764193_at / Fold change /veh 11764193_at / RFU TMEM53 (11763286_at) / Fold change /veh TMEM53 (11763286_at) / RFU MAGEB2 (11727129_at) / Fold change /veh MAGEB2 (11727129_at) / RFU TMEM200A (11744735_a_at) / Fold change /veh TMEM200A (11744735_a_at) / RFU CCDC152 (11751479_a_at) / Fold change /veh CCDC152 (11751479_a_at) / RFU FAM211A (11726209_a_at) / Fold change /veh FAM211A (11726209_a_at) / RFU RGS16 (11746705_a_at) / Fold change /veh RGS16 (11746705_a_at) / RFU VCAN (11755009_s_at) / Fold change /veh VCAN (11755009_s_at) / RFU RHOB (11743442_s_at) / Fold change /veh RHOB (11743442_s_at) / RFU RGS16 (11720943_a_at) / Fold change /veh RGS16 (11720943_a_at) / RFU RGS16 (11720944_at) / Fold change /veh RGS16 (11720944_at) / RFU, VPS4B / Fold change vs veh, VPS4B / RFU, CREB1 / Fold change vs veh, CREB1 / RFU, DNAJC13 / Fold change vs veh, DNAJC13 / RFU, GNAQ / Fold change vs veh, GNAQ / RFU, CDK5R1 / Fold change vs veh, CDK5R1 / RFU, ZRANB3 / Fold change vs veh, ZRANB3 / RFU, CUL4A / Fold change vs veh, CUL4A / RFU, CCNY / Fold change vs veh, CCNY / RFU, UFL1 / Fold change vs veh, UFL1 / RFU, COG3 / Fold change vs veh, COG3 / RFU, DIAPH2 / Fold change vs veh, DIAPH2 / RFU, SKA2 / Fold change vs veh, SKA2 / RFU, AFF3 / Fold change vs veh, AFF3 / RFU, LMF1 / Fold change vs veh, LMF1 / RFU, IPO11 / Fold change vs veh, IPO11 / RFU, DFFB / Fold change vs veh, DFFB / RFU, FOXP1 / Fold change vs veh, FOXP1 / RFU, CARD8 / Fold change vs veh, CARD8 / RFU, STRN3 / Fold change vs veh, STRN3 / RFU, ADK / Fold change vs veh, ADK / RFU, RASSF2 / Fold change vs veh, RASSF2 / RFU, WIPF1 / Fold change vs veh, WIPF1 / RFU, LARP1B / Fold change vs veh, LARP1B / RFU, RASA1 / Fold change vs veh, RASA1 / RFU, RB1 / Fold change vs veh, RB1 / RFU, PPFIA1 / Fold change vs veh, PPFIA1 / RFU, MAT2A / Fold change vs veh, MAT2A / RFU, CCT5 / Fold change vs veh, CCT5 / RFU, WDR92 / Fold change vs veh, WDR92 / RFU, CUX1 / Fold change vs veh, CUX1 / RFU, TTC7A / Fold change vs veh, TTC7A / RFU, TMEM135 / Fold change vs veh, TMEM135 / RFU, DEPTOR / Fold change vs veh, DEPTOR / RFU, CPM / Fold change vs veh, CPM / RFU, DNAJB6 / Fold change vs veh, DNAJB6 / RFU, CACNA2D3 / Fold change vs veh, CACNA2D3 / RFU, DTX4 / Fold change vs veh, DTX4 / RFU, TFCP2 / Fold change vs veh, TFCP2 / RFU, GMCL1 /// GMCL1P1 / Fold change vs veh, GMCL1 /// GMCL1P1 / RFU, AEBP2 / Fold change vs veh, AEBP2 / RFU, SNHG1 /// SNORD22 /// SNORD25 /// SNORD26 /// SNORD27 /// SNORD28 /// SNORD29 /// SNORD31 / Fold change vs veh, SNHG1 /// SNORD22 /// SNORD25 /// SNORD26 /// SNORD27 /// SNORD28 /// SNORD29 /// SNORD31 / Fold change (Aza/veh), C12orf56 (ProbeSet 11735607_a_at) / Fold change (ACY-1035/veh), C12orf56 (ProbeSet 11735607_a_at) / Fold change (Aza/veh), FGFR1OP (ProbeSet 11751329_s_at) / Fold change (ACY-1035/veh), FGFR1OP (ProbeSet 11751329_s_at) / Fold change (Aza/veh), VPS36 (ProbeSet 11739960_a_at) / Fold change (ACY-1035/veh), VPS36 (ProbeSet 11739960_a_at) / RFU SYPL1 (11715823_x_at) / Fold change /veh SYPL1 (11715823_x_at) / RFU IGFBP7 (11715501_s_at) / Fold change /veh IGFBP7 (11715501_s_at) / RFU REEP3 (11722064_at) / Fold change /veh REEP3 (11722064_at) / RFU IGLL1 (11728026_x_at) / Fold change /veh IGLL1 (11728026_x_at): dose or concentration left out as unconfirmed
Settings: ProbeSet 11730252_s_at; LIST B

Nc1ncn([C@@H]2O[C@H](CO)[C@@H](O)[C@H]2O)c(=O)n1 [azacitidine]
Fold change vs veh, AHCTF1: 0.94
